Measured values reported in patent US20150259300A1, “4-(ORTHO)-FLUOROPHENYL-5-FLUOROPYRIMIDIN-2-YL AMINES CONTAINING A SULFONE GROUP” (BAYER PHARMA AKTIENGESELLSCHAFT, priority 2012, published 2015).

Key:
[1] = molecular target: T1, CDK9/CycT1 (Homo sapiens, UniProt P50750); experiment: CDK9/CycT1 high ATP kinase assay (TR-FRET, Method 1b); assay type: biochemical; settings: 2 mM ATP
T1 construct: Recombinant full-length His-tagged human CDK9 and CycT1; His; purchased Invitrogen PV4131; host or cells: insect cells
T1 sequence (P50750 whole entry): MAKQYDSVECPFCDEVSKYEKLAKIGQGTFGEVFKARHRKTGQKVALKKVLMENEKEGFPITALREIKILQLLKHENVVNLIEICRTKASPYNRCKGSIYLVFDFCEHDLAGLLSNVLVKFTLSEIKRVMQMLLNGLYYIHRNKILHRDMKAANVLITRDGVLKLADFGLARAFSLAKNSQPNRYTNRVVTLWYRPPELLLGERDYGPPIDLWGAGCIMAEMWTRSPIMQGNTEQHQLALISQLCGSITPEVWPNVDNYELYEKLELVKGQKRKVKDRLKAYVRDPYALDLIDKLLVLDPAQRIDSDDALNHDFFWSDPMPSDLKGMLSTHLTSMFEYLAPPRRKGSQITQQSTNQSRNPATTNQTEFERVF
T1 sequence (O60563 whole entry partner): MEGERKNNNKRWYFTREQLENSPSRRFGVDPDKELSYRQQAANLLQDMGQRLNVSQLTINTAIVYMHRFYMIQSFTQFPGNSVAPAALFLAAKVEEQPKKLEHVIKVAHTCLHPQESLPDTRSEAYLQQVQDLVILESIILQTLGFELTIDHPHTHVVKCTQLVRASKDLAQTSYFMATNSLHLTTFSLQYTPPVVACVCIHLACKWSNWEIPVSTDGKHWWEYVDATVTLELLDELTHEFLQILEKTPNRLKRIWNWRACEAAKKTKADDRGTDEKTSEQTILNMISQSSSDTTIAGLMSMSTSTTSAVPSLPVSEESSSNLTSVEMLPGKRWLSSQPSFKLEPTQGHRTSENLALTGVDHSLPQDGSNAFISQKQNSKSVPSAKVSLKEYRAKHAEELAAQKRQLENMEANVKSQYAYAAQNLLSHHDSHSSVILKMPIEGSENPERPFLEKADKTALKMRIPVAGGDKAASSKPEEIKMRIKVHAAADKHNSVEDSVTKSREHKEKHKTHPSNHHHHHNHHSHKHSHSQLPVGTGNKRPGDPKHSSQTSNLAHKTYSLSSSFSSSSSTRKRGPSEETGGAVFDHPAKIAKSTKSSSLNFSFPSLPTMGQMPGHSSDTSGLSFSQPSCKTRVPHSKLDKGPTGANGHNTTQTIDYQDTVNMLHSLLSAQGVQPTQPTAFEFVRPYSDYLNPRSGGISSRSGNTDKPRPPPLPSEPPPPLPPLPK
Protocol: 1b. CDK9/CyeT1 High ATP Kinase Assay
CDK9/CycT1-inhibitory activity of compounds of the present invention at a high ATP concentration after preincubation of enzyme and test compounds was quantified employing the CDK9/CycT1 TR-FRET assay as described in the following paragraphs.
Recombinant full-length His-tagged human CDK9 and CycT1, expressed in insect cells and purified by Ni-NTA affinity chromatography, were purchase from Invitrogen (Cat. No PV4131). As substrate for the kinase reaction biotinylated peptide biotin-Ttds-YISPLKSPYKISEG (C-terminus in amid form) was used which can be purchased e.g. form the company JERINI peptide technologies (Berlin, Germany).
(§1) For the assay 50 nl of a 100 fold concentrated solution of the test compound in DMSO was pipetted into a black low volume 384 well microtiter plate (Greiner Bio-One, Frickenhausen, Germany), 2 μl of a solution of CDK9/CycT1 in aqueous assay buffer [50 mM Tris/HCl pH 8.0, 10 mM MgCl2, 1.0 mM dithiothreitol, 0.1 mM sodium ortho-vanadate, 0.01% (v/v) Nonidet-P40 (Sigma)] were added and the mixture was incubated for […] at 22° C. to allow pre-binding of the test compounds to the enzyme before the start of the kinase reaction. Then the kinase reaction was started by the addition of 3 μl of a solution of adenosine-tri-phosphate (ATP, 3.3 mM=>final conc. in the 5 μl assay volume is 2 mM) and substrate (1.67 μM=>final conc. in the 5 μl assay volume is 1 μM) in assay buffer and the resulting mixture was incubated for a reaction time of […] at 22° C. The concentration of CDK9/CycT1 was adjusted depending of the activity of the enzyme lot and was chosen appropriate to have the assay in the linear range, typical concentrations were in the range of 0.5 ng/ml. The reaction was stopped by the addition of 5 μl of a solution of TR-FRET detection reagents (0.2 μl streptavidine-XL665 [Cisbio Bioassays, Codolet, France] and 1 nM anti-RB(pSer807/pSer811)-antibody from BD Pharmingen [#558389] and 1.2 nM LANCE EU-W1024 labeled anti-mouse IgG antibody [Perkin-Elmer, product no. AD0077]) in an aqueous EDTA-solution (100 mM EDTA, 0.2% (w/v) bovine serum albumin in 100 mM HEPES/NaOH pH 7.0).
(§2) The resulting mixture was incubated 1 h at 22° C. to allow the formation of complex between the phosphorylated biotinylated peptide and the detection reagents. Subsequently the amount of phosphorylated substrate was evaluated by measurement of the resonance energy transfer from the Eu-chelate to the streptavidine-XL. Therefore, the fluorescence emissions at 620 nm and 665 nm after excitation at 350 nm was measured in a HTRF reader, e.g. a Rubystar (BMG Labtechnologies, Offenburg, Germany) or a Viewlux (Perkin-Elmer). The ratio of the emissions at 665 nm and at […] was taken as the measure for the amount of phosphorylated substrate. The data were normalised (enzyme reaction without inhibitor=0% inhibition, all other assay components but no enzyme=100% inhibition).

[2] = molecular target: T2, CDK2/CycE (Homo sapiens, UniProt P24941); experiment: CDK2/CycE kinase assay (TR-FRET, Method 2); assay type: biochemical; settings: Method 2, 10 μM ATP
T2 construct: GST; purchased ProQinase GmbH (Freiburg, Germany); host or cells: insect cells (Sf9)
From the text: 2. CDK2/CycE Kinase Assay:
CDK2/CycE -inhibitory activity of compounds of the present invention was quantified employing the CDK2/CycE TR-FRET assay as described in the following paragraphs:
Recombinant fusion proteins of GST and human CDK2 and of GST and human CycE, expressed in insect cells (Sf9) and purified by Glutathion-Sepharose affinity chromatography, were purchased from ProQinase GmbH (Freiburg, Germany). As substrate for the kinase reaction biotinylated peptide biotin-Ttds-YISPLKSPYKISEG (C-terminus in amid form) was used which can be purchased e.g. form the company JERINI Peptide Technologies (Berlin, Germany).
as §1, with “of CDK2/CycE” for “of CDK9/CycT1”, “(ATP, 16.7” for “(ATP, 3.3 mM=>final conc. in the 5 μl assay volume is 2 mM) and substrate (1.67”, “is 10 μM) and substrate (1.25 μM=>final conc. in the 5 μl assay volume is 0.75” for “is 1”, “of 130” for “of 0.5”, “(0.2 μM” for “(0.2 μl”
as §2, with “TR-FRET” for “HTRF”

[3] = system: HeLa cells; experiment: Proliferation assay (crystal violet), HeLa; assay type: cell-based; settings: Homo sapiens, 96 h, 4 days, read-out: Inhibition of HeLa cell proliferation IC50
Protocol: Cultivated tumour cells (HeLa, human cervical tumour cells, ATCC CCL-2; NCI-H460, human non-small cell lung carcinoma cells, ATCC HTB-177; A2780, human ovarian carcinoma cells, ECACC #93112519; DU 145, hormone-independent human prostate carcinoma cells, ATCC HTB-81; HeLa-MaTu-ADR, multidrug-resistant human cervical carcinoma cells, EPO-GmbH Berlin; Caco-2, human colorectal carcinoma cells, ATCC HTB-37; B 16F10, mouse melanoma cells, ATCC CRL-6475) were plated at a density of 5,000 cells/well (DU145, HeLa-MaTu-ADR), 3,000 cells/well (NCI-H460, HeLa), 2,500 cells/well (A2780), 1,500 cells/well (Caco-2), or 1,000 cells/well (B16F10) in a 96-well multititer plate in 200 μL of their respective growth medium supplemented 10% fetal calf serum. After 24 hours, the cells of one plate (zero-point plate) were stained with crystal violet (see below), while the medium of the other plates was replaced by fresh culture medium (200 to which the test substances were added in various concentrations (0 μM, as well as in the range of 0.001-10 μM; the final concentration of the solvent dimethyl sulfoxide was 0.5%). The cells were incubated for 4 days in the presence of test substances. Cell proliferation was determined by staining the cells with crystal violet: the cells were fixed by adding 20 μl/measuring point of an 11% glutaric aldehyde solution for 15 minutes at room temperature. After three washing cycles of the fixed cells with water, the plates were dried at room temperature. The cells were stained by adding 100 μl/measuring point of a 0.1% crystal violet solution (pH 3.0). After three washing cycles of the stained cells with water, the plates were dried at room temperature. The dye was dissolved by adding 100 μl/measuring point of a 10% acetic acid solution. The extinction was determined by photometry at a wavelength of 595 nm. The change of cell number, in percent, was calculated by normalization of the measured values to the extinction values of the zero-point plate (=0%) and the extinction of the untreated (0 μm) cells (=100%). The IC50 values (inhibitory concentration at 50% of maximal effect) were determined by means of a 4 parameter fit.

[4] = molecular target: T1, CDK9/CycT1; experiment: CDK9/CycT1 kinase assay (TR-FRET, Method 1a); assay type: biochemical; settings: for IC50: Method 1a, 10 μM ATP; for Selectivity CDK9/CDK2: derived from Methods 1a. and 2.
From the text: 1a. CDK9/CyeT1 Kinase Assay:
CDK9/CycT1-inhibitory activity of compounds of the present invention was quantified employing the CDK9/CycT1 TR-FRET assay as described in the following paragraphs:
Recombinant full-length His-tagged human CDK9 and CycT1, expressed in insect cells and purified by Ni-NTA affinity chromatography, were purchased from Invitrogen (Cat. No PV4131). As substrate for the kinase reaction biotinylated peptide biotin-Ttds-YISPLKSPYKISEG (C-terminus in amid form) was used which can be purchased e.g. form the company JERINI Peptide Technologies (Berlin, Germany). For the assay 50 nl of a 100 fold concentrated solution of the test compound in DMSO was pipetted into a black low volume 384 well microtiter plate (Greiner Bio-One, Frickenhausen, Germany), 2 μl of a solution of CDK9/CycT1 in aqueous assay buffer [50 mM Tris/HCl pH 8.0, 10 mM MgCl2, 1.0 mM dithiothreitol, 0.1 mM sodium ortho-vanadate, 0.01% (v/v) Nonidet-P40 (Sigma)] were added and the mixture was incubated for 15 min at 22° C. to allow pre-binding of the test compounds to the enzyme before the start of the kinase reaction. Then the kinase reaction was started by the addition of 3 μl of a solution of adenosine-tri-phosphate (ATP, 16.7 μM=>final conc. in the 5 μl assay volume is 10 μM) and substrate (1.67 μM=>final conc. in the 5 μl assay volume is 1 μM) in assay buffer and the resulting mixture was incubated for a reaction time of 25 min at 22° C. The concentration of CDK9/CycT1 was adjusted depending of the activity of the enzyme lot and was chosen appropriate to have the assay in the linear range, typical concentrations were in the range of 1 μg/ml. The reaction was stopped by the addition of 5 μl of a solution of TR-FRET detection reagents (0.2 μM streptavidine-XL665 [Cisbio Bioassays, Codolet, France] and 1 nM anti-RB(pSer807/pSer811)-antibody from BD Pharmingen [#558389] and 1.2 nM LANCE EU-W1024 labeled anti-mouse IgG antibody [Perkin-Elmer, product no. AD0077]) in an aqueous EDTA-solution (100 mM EDTA, 0.2% (w/v) bovine serum albumin in 100 mM HEPES/NaOH pH 7.0).
as §2

SMILES	IC50 [1]	IC50 [2]	IC50 [3]	IC50 [4]	Selectivity CDK9/CDK2 [4]
CCCS(=O)(=O)Cc1cc(F)cc(Nc2ncc(F)c(-c3cc(F)c(F)cc3F)n2)c1 [Example 14, 5-Fluoro-N-{3-fluoro-5-[(propylsulfonyl)methyl]phenyl}-4-(2,4,5-trifluorophenyl)pyrimidin-2-amine]	> 20000 nM	> 20000 nM	3000 nM	–	–
CS(=O)(=O)Cc1cc(Nc2ncc(F)c(-c3ccc(F)cc3F)n2)cc(C(F)(F)F)c1 [Example 1, 4-(2,4-Difluorophenyl)-5-fluoro-N-{3-[(methylsulfonyl)methyl]-5-(trifluoromethyl)phenyl}pyrimidin-2-amine]	–	> 20000 nM	1050 nM	20 nM	>1000
CCS(=O)(=O)Cc1cccc(Nc2ncc(F)c(-c3ccc(F)cc3F)n2)c1 [Example 7, 4-(2,4-Difluorophenyl)-N-{3-[(ethylsulfonyl)methyl]phenyl}-5-fluoropyrimidin-2-amine]	–	360 nM	2240 nM	40 nM	8.9
